According to publication PMC5897986 (Frontiers in Endocrinology, 2018):

Experiments:
[1] = test system: SSTR-binding sites at the cell surface of QGP-1 cells; test: competitive [125I]-Tyr11-SST14 radioligand binding assay, QGP-1 cells; design: species or system human; conditions: only background binding, unlabeled peptide 0.01 nM–10 µM
Procedure: (§1) Peptide iodination and radioligand-binding assays were performed as previously described ([21]). Briefly, 10 nmol Tyr^11-somatostatin-14 (Tyr^11–SST14, Bachem, Bubendorf, Switzerland) were iodinated by the chloramin T method ([22]) with 1 mCi carrier-free Na^125I (NEZ033L010MC, Perkin Elmer, Waltham, MA, USA) and purified by HPLC (Analytic HPLC 1200 Series, Agilent, Santa Clara, CA, USA) (see Figure S1 in Supplementary Material). For competitive radioligand binding assays, 40,000 cells were seeded in 96-well plates and grown overnight. The next day, cells were incubated in binding buffer (50 mM Hepes, pH 7.4, 5 mM MgCl2, 1 mM CaCl2, 0.5% w/v BSA, cOmplete protease inhibitors) containing 100,000 counts per minute (cpm) [^125I]-Tyr^11-SST14 and increasing concentrations of unlabeled peptide. After 30 min at 37°C, cells were washed with ice-cold washing buffer (50 mM Tris–HCl, pH 7.4, 125 mM NaCl, 0.05% w/v BSA), lysed with 1 N NaOH, transferred to vials, and measured in a gamma counter (Wallac 1470 Wizard, Perkin Elmer, Waltham, MA, USA). The obtained cpm values were analyzed with GraphPad Prism 5.04, and IC50 values were calculated by non-linear regression (one site—fit logIC50, least squares fit).

[2] = test system: SSTR-binding sites at the cell surface of BON cells; test: competitive [125I]-Tyr11-SST14 radioligand binding assay, BON cells; design: species or system human; conditions: BON whole cells, 30 min at 37°C, unlabeled peptide 0.01 nM–10 µM, gamma counter; read-out: IC50, displacement of [125I]-Tyr11-SST14
Procedure: as §1

[3] = test system: SSTR-binding sites at the cell surface of LCC-18 cells; test: competitive [125I]-Tyr11-SST14 radioligand binding assay, LCC-18 cells; design: species or system human; conditions: only background binding, unlabeled peptide 0.01 nM–10 µM
Procedure: as §1

[4] = test system: human SSTR2 in QGP-1-SSTR2 cells; test: microscopic SSTR2 internalization assay; format: cell-based; conditions: QGP-1-SSTR2, 1 µM ligand, 30 min at 37°C, confocal microscopy
Procedure: (§2) Cells were grown on coverslips for at least 24 h. […] Cells were washed with PBS, fixated in 1:1 acetone/methanol for 2 min, and incubated with anti-SSTR2 primary antibody (sc365502, Santa Cruz Biotechnology, Dallas, TX, USA) diluted 1:50 in PBS overnight at 4°C. After washing with PBS, cells were incubated with a Cy3-conjugated goat anti-mouse secondary antibody (#115-165-146, Jackson ImmunoResearch, West Grove, PA, USA) diluted 1:1,000 in PBS for 1 h at room temperature. After washing with PBS, coverslips were briefly dipped into 96% ethanol, air-dried, and mounted on glass slides with Immu-Mount (Thermo Fisher Scientific, Waltham, MA, USA). Mounted cells were imaged using a confocal laser scanning microscope (LSM510, Carl Zeiss, Jena, Germany) using a helium–neon laser at 543 nm, LP560 emission filter, and 40× or 63× NeoFluar oil immersion objectives. RIN-1038-SSTR2-GFP cells were not immunostained after fixation, but otherwise treated the same. To visualize GFP fluorescence, an argon laser at 488 nm, LP505 emission filter was utilized on the same microscope.

[5] = test system: human SSTR2 in BON-SSTR2 cells; test: microscopic SSTR2 internalization assay; format: cell-based; conditions: BON-SSTR2, 1 µM ligand, 30 min at 37°C, confocal microscopy
Procedure: as §2

[6] = test system: SSTR-binding sites at the cell surface of UMC-11 cells; test: competitive [125I]-Tyr11-SST14 radioligand binding assay, UMC-11 cells; design: species or system human; conditions: UMC-11 whole cells, 30 min at 37°C, unlabeled peptide 0.01 nM–10 µM, gamma counter; read-out: IC50, displacement of [125I]-Tyr11-SST14
Procedure: as §1

[7] = test system: SSTR-binding sites at the cell surface of H727 cells; test: competitive [125I]-Tyr11-SST14 radioligand binding assay, H727 cells; design: species or system human; conditions: only background binding, unlabeled peptide 0.01 nM–10 µM
Procedure: as §1

[8] = test system: metastatic, well- or moderately differentiated, non-functional enteropancreatic NET; conditions: patients, CLARINET trial, placebo 18 months; cited from earlier work
Description: Somatostatin analogs (SSAs) are well-established antisecretory drugs with a favorable safety profile that have been used as first-line treatment to control hormone hypersecretion in functionally active neuroendocrine tumors (NET) for more than 30 years ([1], [2]). […] The relevance of SSAs in antiproliferative treatment has been a matter of debate for the past two decades.

Substance	displacement of [125I]-Tyr11-SST14 binding [1]	IC50 [2] [pM]	displacement of [125I]-Tyr11-SST14 binding [3]	SSTR2 internalization / redistribution [4]	SSTR2 internalization / redistribution [5]	IC50 [6] [pM]	displacement of [125I]-Tyr11-SST14 binding [7]	median progression-free survival [8]
somatostatin-14	no displacement	500 ± 160	no displacement	functional, ligand-dependent SSTR2 internalization	functional, ligand-dependent SSTR2 internalization	700 ± 290	no displacement	
lanreotide								not reached
